The source of these data is patent US11912670B1, “Ethyl 4-(5-(3-fluorophenyl)-4-phenyl-4H-1,2,4-triazol-3-ylthio)butanoate as an antimicrobial compound” (KING FAISAL UNIVERSITY, priority 2023, dated 2024).

Each structure is given as a SMILES string.

Assay type in all cases: cell-based
Assay [1] relates to Bacillus cereus. The assay is described as follows: Agar plate disc-diffusion, antibacterial (gram positive). To be noted: nutrient agar, 37° C., 48 hours, DMSO control zone subtracted. As to the method:
(§1) The agar plate disc-diffusion method was applied. […] The discs were then placed onto the surface of agar plates (nutrient agar for bacteria and Sabouraud's dextrose agar for fungi) seeded with the test organism. Each plate contained 15 mL of the agar medium, previously seeded with 0.2 mL of the broth culture of each organism pregrown for 18 hours. The plates were incubated at 37° C. for 48 hours, and 72 hours for fungi. The inhibition zones were measured in mm. Discs impregnated with DMSO were used as a control, and its inhibition zone was subtracted from the tested compound actual inhibition zone.

The test system of assay [2] is Staphylococcus aureus. The description is as above. Particulars: nutrient agar, 37° C., 48 hours, DMSO control zone subtracted. As to the method:
as §1

For assay [3], the system named is Escherichia coli. As to the kind of experiment: Agar plate disc-diffusion, antibacterial (gram negative). To be noted: nutrient agar, 37° C., 48 hours, DMSO control zone subtracted. As to the method: as §1
For assay [4], the system named is Pseudomonas aeruginosa. The description is as above. To be noted: nutrient agar, 37° C., 48 hours, DMSO control zone subtracted. As to the method: as §1
The test system of assay [5] is Aspergillus flavus. The assay is described as follows: Agar plate disc-diffusion, antifungal. Particulars: Sabouraud's dextrose agar, 72 hours, DMSO control zone subtracted. As to the method: as §1
(In general: Agar diffusion results depend on both activity and mobility in agar.)

Assay [6] relates to Chrysosporium keratinophilum. The assay is described as follows: Agar plate disc-diffusion, antifungal. Particulars: Sabouraud's dextrose agar, 72 hours, DMSO control zone subtracted. As to the method: as §1
[7] abbreviates: A = concentration of comp. = 10,000 μL.
[8] abbreviates: B = concentration of comp. = 30,000 μL.
Where [9] appears, read: C = concentration of comp. = 50,000 μL.

For the compound `CCOC(=O)CCCSc1nnc(-c2cccc(F)c2)n1-c1ccccc1` [III, ethyl 4-(5-(3-fluorophenyl)-4-phenyl-4H-1,2,4-triazol-3-ylthio)butanoate], the “inhibition zone, Bacillus Cereus, A” value in assay [1] (setting [7]) is 27 mm. Moreover, the “inhibition zone, Bacillus Cereus, B” value in assay [1] (setting [8]) was determined as 29 mm. Moreover, the “inhibition zone, Bacillus Cereus, C” value in assay [1] (setting [9]) amounted to 40 mm. The “inhibition zone, Staphylococcus aureus, A” value in assay [2] (setting [7]) was determined as 18 mm. For the same compound, in assay [2] (setting [8]), the “inhibition zone, Staphylococcus aureus, B” value is 25 mm. In assay [2] (setting [9]), the “inhibition zone, Staphylococcus aureus, C” value was 30 mm. Besides, the “inhibition zone, Escherichia coli, A” value in assay [3] (setting [7]) came out at 22 mm. Moreover, the “inhibition zone, Escherichia coli, B” value in assay [3] (setting [8]) is on record as 29 mm. The “inhibition zone, Escherichia coli, C” value in assay [3] (setting [9]) amounted to 42 mm. Moreover, in assay [4] (setting [7]), the “inhibition zone, Pseudomonas aeruginosa, A” value worked out at 25 mm. The “inhibition zone, Pseudomonas aeruginosa, B” value in assay [4] (setting [8]) turned out to be 29 mm. The “inhibition zone, Pseudomonas aeruginosa, C” value in assay [4] (setting [9]) worked out at 46 mm. In addition, in assay [5] (setting [7]), the “inhibition zone, Aspergillus flavus, A” value amounted to 26 mm. In assay [5] (setting [8]), the “inhibition zone, Aspergillus flavus, B” value came to 28 mm. Also, the “inhibition zone, Aspergillus flavus, C” value in assay [5] (setting [9]) is recorded as 40 mm. Moreover, the “inhibition zone, Chrysosporium keratinophilum, A” value in assay [6] (A = concentration of comp. = 10,000 μg/mL) stood at 25 mm. Besides, the “inhibition zone, Chrysosporium keratinophilum, B” value in assay [6] (setting [8]) was determined as 28 mm. Also, the “inhibition zone, Chrysosporium keratinophilum, C” value in assay [6] (setting [9]) turned out to be 48 mm.
